{"source": "patent US20220025331A1", "about": "“METHODS AND SYSTEMS FOR IMPROVING CELLS FOR USE IN THERAPY” (priority 2017, published 2022)", "key": {"P3R foAC neocartilage [1]": {"test_system": "P3R foAC neocartilage", "assay": "Phase 3: TCL treatment of cytochalasin D treated P3R Opt neocartilage", "assay_type": "cell-based, sheep", "conditions": "Phase 3, P3R Opt, 2 million cells", "method": "(§1) Chondrocyte Isolation: Fetal ovine articular chondrocytes (foACs) were harvested from the patellofemoral surfaces of 120-day gestation Dorper cross sheep obtained as medical waste (UC Davis School of Veterinary Medicine). Cartilage from the whole surface of both condyles and the trochlear groove was minced into approximately 1 mm^3 pieces, then washed and centrifuged (500 G for 5 minutes) three times with Dulbecco's Modified Eagle Medium containing 4.5 g/L glucose and GlutaMAX (DMEM; Gibco) and 2% (v/v) penicillin/streptomycin/fungizone (PSF; Lonza). The tissue was digested in 0.2% (w/v) collagenase type II (Worthington) in DMEM containing 3% (v/v) fetal bovine serum (FBS; Atlanta Biologicals) for 18 hours at 37° C. with gentle rocking. After digestion, the resultant cell solutions were filtered through 70 μm cell strainers. For Studies 1-3, foACs were washed with ACK buffer (154.4 mM ammonium chloride (Sigma), 10 mM potassium bicarbonate (Fisher Scientific), 50 mM EDTA tetrasodium salt (Acros Organics) in ultrapure water for three minutes as previously described. These primary (P0) foACs were then frozen in DMEM with 20% (v/v) DMSO (Sigma) and 10% (v/v) FBS.\nChondrocyte Expansion and Redifferentiation: Previously frozen P0 foACs were seeded in T-225 flasks at 1.5×10^4 cells/cm^2 and expanded in chemically defined chondrogenic medium (CHG medium) (DMEM containing 1% PSF, 1% ITS+ premix (BD Biosciences), 1% non-essential amino acids (Gibco), 100 nM dexamethasone (Sigma), 50 mg/mL ascorbate-2-phosphate (Sigma), 40 g/mL L-proline (Sigma), and […] sodium pyruvate (Sigma)) with 2% FBS and chondrogenically tuned TFP supplementation (1 ng/mL TGF-μ1, 5 ng/mL bFGF, 10 ng/mL PDGF; al from PeproTech). Media was exchanged every 2-3 days. At confluence, cells were lifted with 0.5% Trypsin-EDTA (Gibco) for 5 minutes followed by digestion of the cell layers with DMEM containing 0.2% collagenase type II and 2% FBS for approximately 1 hour at 37° C., triturating every 20 minutes. […] Following dissociation of the aggregates, cells were filtered through a 70 μm cell strainer and counted. […]"}, "P3 and P3R foACs": {"test_system": "P3 and P3R foACs", "assay": "Chondrocyte F-actin visualization (phalloidin staining)", "assay_type": "cell-based, sheep", "method": "Chondrocyte Actin Visualization: In Phase 2, to visualize the effects of cytochalasin D treatment on cytoskeletal-mediated chondrogenic redifferentiation, F-actin staining was performed on untreated P0 foACs and both cytochalasin D treated and untreated P3 and P3R foACs. Approximately 8×10^3 cells/cm^2 were allowed to attach to glass slides for 1 hour in the presence of 2% FBS. Non-adherent cells were washed away with two exchanges of PBS, followed by the fixation of attached cells in 3.9% formaldehyde in PBS for 10 minutes. After another two washes with PBS, fixed cells were permeabilized with 0.1% Triton-X 100 (Sigma) in PBS for 5 minutes. Following two washes with PBS, cells were stained with CF594-conjugated phalloidin (Biotium; 1200 dilution in PBS) for 30 minutes. Excess stain was washed away with two exchanges of PBS and the cells were counterstained with DAPI-containing Vectashield (Vector Laboratories) and coverslipped for visualization using a Texas Red fluorescent channel."}, "P3 foAC neocartilage": {"test_system": "P3 foAC neocartilage", "assay": "Phase 2: cytochalasin D and hyaluronidase treatment of P3 (passaged, not redifferentiated) neocartilage", "assay_type": "cell-based, sheep", "conditions": "P3, 2 million cells/construct; for construct diameter: Cyto D 2 μM first 48 hours, Hya 200 units/mL at seeding", "method": "as §1\n(§2) Chondrocyte Expansion and Redifferentiation: Previously frozen P0 foACs were seeded in T-225 flasks at 1.5×10^4 cells/cm^2 and expanded in chemically defined chondrogenic medium (CHG medium) (DMEM containing 1% PSF, 1% ITS+ premix (BD Biosciences), 1% non-essential amino acids (Gibco), 100 nM dexamethasone (Sigma), 50 mg/mL ascorbate-2-phosphate (Sigma), 40 g/mL L-proline (Sigma), and […] sodium pyruvate (Sigma)) with 2% FBS and chondrogenically tuned TFP supplementation (1 ng/mL TGF-μ1, 5 ng/mL bFGF, 10 ng/mL PDGF; al from PeproTech). Media was exchanged every 2-3 days. At confluence, cells were lifted with 0.5% Trypsin-EDTA (Gibco) for 5 minutes followed by digestion of the cell layers with DMEM containing 0.2% collagenase type II and 2% FBS for approximately 1 hour at 37° C., triturating every 20 minutes. The resulting cell solution was filtered through a 70 μm cell strainer and reseeded into T-225 flasks to achieve three passages (P3). P3 foACs underwent aggregate redifferentiation (P3R) as previously described. Briefly, 750,000 cells/mL CHG medium containing TGB supplementation (10 ng/mL TGF-β1, 100 ng/mL GDF-5, 100 ng/mL BMP-2; al from PeproTech) were cultured in 100 mm×20 mm petri dishes coated with 1% (w/v) molecular biology grade agarose (Thermo Fisher Scientific) made with phosphate buffered saline (PBS; Sigma) to create a non-adherent environment. Aggregate cultures were maintained on an orbital shaker at 60 rpm for the first 3 days and remained static for the remainder of the 14-day redifferentiation period. Media was exchanged every 2-3 days. At the end of the culture period, aggregates were digested with 0.5% Trypsin-EDTA for 20 minutes, followed by 0.2% collagenase in DMEM with 2% FBS for approximately 2 hours at 37° C., triturating every 20 minutes. Following dissociation of the aggregates, cells were filtered through a 70 μm cell strainer and counted.\n(§3) Neocartilage Construct Seeding and Culture: P0, P3, or P3R foACs were self-assembled into engineered neocartilage constructs in non-adherent agarose wells. A sterile stainless steel mold consisting of 5 mm diameter cylindrical posts was inserted into a 48-well plate, each well containing 1 mL molten 2% (w/v) agarose to create a single agarose well per plate well. After solidification of the agarose at room temperature, the mold was removed. Agarose wells were filled with CHG medium exchanged twice over the course of 5 days to ensure saturation of the agarose before seeding. For each phase, cells were seeded into 5 mm agarose wells in 100 μL CHG medium per well. In Phase 1, P0 or P3R foACs were each seeded at five densities: 2, 3, 4, 5, and 6 million cells per construct. In Phase 2, P3 and P3R foACs were seeded at 2 million cells per construct. In Phase 3, 2 million P3R foACs were seeded. […]"}, "[2]": {"test_system": "adult human costal chondrocytes (ahCCs)", "assay": "Cyto D treatment of self-assembled neocartilage from human costal chondrocytes (FIG. 18)", "assay_type": "cell-based", "conditions": "ahCCs P3 rejuvenated, 2 million cells, 2 μM at day 0-2", "method": "Control constructs were untreated. Constructs treated with cytochalasin D (Cyto D) were treated with 2 μM at day 0-2. […] This example clearly illustrates that it is not obvious that a treatment that is beneficial for cells from one species will be beneficial when applied to cells from another species."}, "P3R foAC neocartilage [3]": {"test_system": "P3R foAC neocartilage", "assay": "Phase 2: cytochalasin D and hyaluronidase treatment of P3R (passaged, redifferentiated) neocartilage", "assay_type": "cell-based, sheep", "conditions": "for neocartilage thickness / neocartilage wet weight / construct diameter: P3R Opt; for construct diameter: Cyto D 2 μM first 48 hours, Hya 200 units/mL at seeding", "method": "as §1, §2, §3"}, "[4]": {"conditions": "P3R Opt neocartilage, over the untreated group"}, "[5]": {"conditions": "cytochalasin D treated P3R Opt neocartilage"}, "[6]": {"conditions": "foACs P3 rejuvenated, 2 million cells, 2 μM at day 0-2, FIG. 18"}}}
{"compound": "C=C1[C@@H](C)[C@H]2[C@H](Cc3ccccc3)NC(=O)[C@]23[C@H](OC(C)=O)/C=C/[C@@](C)(O)C(=O)[C@@H](C)C/C=C/[C@H]3[C@@H]1O", "note": "[cytochalasin D]", "values": [{"measurement": "neocartilage diameter", "setting": "P3R foAC neocartilage [1]", "value": "6.5±0.4", "unit": "mm"}, {"measurement": "neocartilage thickness", "setting": "P3R foAC neocartilage [1]", "value": "0.8±0.2", "unit": "mm"}, {"measurement": "neocartilage wet weight", "setting": "P3R foAC neocartilage [1]", "value": "87.1 ± 3.6", "unit": "mg"}, {"measurement": "actin arrangement", "setting": "P3 and P3R foACs; P3R chondrocytes", "value": "localized more of the actin cortically than in untreated P3R cells"}, {"measurement": "cell shape and actin arrangement", "setting": "P3 and P3R foACs; P3 chondrocytes", "value": "induced a rounded cell shape"}, {"measurement": "neocartilage thickness", "setting": "P3 foAC neocartilage", "value": "0.4±0.1", "unit": "mm"}, {"measurement": "neocartilage wet weight", "setting": "P3 foAC neocartilage", "value": "8.4 ± 1.0", "unit": "mg"}, {"measurement": "construct diameter", "setting": "P3 foAC neocartilage", "value": "3.7±0.2", "unit": "mm"}, {"measurement": "aggregate modulus", "setting": "[2]", "value": "significantly decreased"}, {"measurement": "shear modulus", "setting": "[2]", "value": "significantly decreased"}, {"measurement": "increase of aggregate modulus over the P0 control", "setting": "P3R foAC neocartilage [3]; ACK treated P3R cells, 2 million cells/construct, vs untreated P0 control", "value": 9.6, "unit": "fold"}, {"measurement": "neocartilage aggregate modulus", "setting": "P3R foAC neocartilage [3]; ACK treated P3R chondrocytes seeded at 2 million cells/construct", "value": 400, "unit": "kPa"}, {"measurement": "increase in compressive stiffness (aggregate modulus)", "setting": "P3R foAC neocartilage [3]; [4]", "value": 0.9, "unit": "fold"}, {"measurement": "increase in tensile stiffness", "setting": "P3R foAC neocartilage [3]; [4]", "value": 1.0, "unit": "fold"}, {"measurement": "increase in tensile strength", "setting": "P3R foAC neocartilage [3]; [4]", "value": 2.7, "unit": "fold"}, {"measurement": "neocartilage thickness", "setting": "P3R foAC neocartilage [3]; 2 million cells/construct", "value": "0.7±0.1", "unit": "mm"}, {"measurement": "neocartilage wet weight", "setting": "P3R foAC neocartilage [3]; 2 million cells/construct", "value": "28.1 ± 2.6", "unit": "mg"}, {"measurement": "construct diameter", "setting": "P3R foAC neocartilage [3]; 2 million cells/construct", "value": "6.5±0.2", "unit": "mm"}, {"measurement": "GAG/wet weight", "setting": "P3R foAC neocartilage [3]; P3R neocartilage, FIG. 8C", "value": "increased"}, {"measurement": "functionality index (FI) with respect to native fetal cartilage", "setting": "P3R foAC neocartilage [3]; [5]", "value": 1.1}, {"measurement": "functionality index (FI) with respect to native juvenile cartilage", "setting": "P3R foAC neocartilage [3]; [5]", "value": 0.83}, {"measurement": "compressive aggregate modulus", "setting": "P3R foAC neocartilage [3]; [6]", "value": "significantly increased"}, {"measurement": "shear modulus", "setting": "P3R foAC neocartilage [3]; [6]", "value": "significantly increased"}]}
{"compound": "hyaluronidase", "values": [{"measurement": "neocartilage thickness", "setting": "P3 foAC neocartilage", "value": "2.0±0.2", "unit": "mm"}, {"measurement": "neocartilage wet weight", "setting": "P3 foAC neocartilage", "value": "6.7 ± 0.4", "unit": "mg"}, {"measurement": "construct diameter", "setting": "P3 foAC neocartilage", "value": "2.6±0.1", "unit": "mm"}, {"measurement": "neocartilage thickness", "setting": "P3R foAC neocartilage [3]; 2 million cells/construct", "value": "0.8±0.2", "unit": "mm"}, {"measurement": "neocartilage wet weight", "setting": "P3R foAC neocartilage [3]; 2 million cells/construct", "value": "23.9 ± 1.4", "unit": "mg"}, {"measurement": "construct diameter", "setting": "P3R foAC neocartilage [3]; 2 million cells/construct", "value": "5.9±0.0", "unit": "mm"}]}
